Measurements: PubChem BioAssay AID463149 (The Scripps Research Institute Molecular Screening Center, 2010)

How the values were obtained:
Experiment in all cases: PME-1 inhibitors in HeLa proteome, late-stage follow-up, selectivity assay, cell lysate, gel-based competitive ABPP, fluorescence, powder samples (AID 463149);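 also: 0% = DMSO-treated band intensity and 100% = blank gel background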
[1] = molecular target: Acylamino-acid-releasing enzyme (Homo sapiens) (UniProt P13798); details: HeLa soluble proteome, FP-Rh fluorescence, measured here: Anti-Target APEH, stronger effect = higher value
Sequence of Acylamino-acid-releasing enzyme (Homo sapiens) (P13798 whole entry, looked up): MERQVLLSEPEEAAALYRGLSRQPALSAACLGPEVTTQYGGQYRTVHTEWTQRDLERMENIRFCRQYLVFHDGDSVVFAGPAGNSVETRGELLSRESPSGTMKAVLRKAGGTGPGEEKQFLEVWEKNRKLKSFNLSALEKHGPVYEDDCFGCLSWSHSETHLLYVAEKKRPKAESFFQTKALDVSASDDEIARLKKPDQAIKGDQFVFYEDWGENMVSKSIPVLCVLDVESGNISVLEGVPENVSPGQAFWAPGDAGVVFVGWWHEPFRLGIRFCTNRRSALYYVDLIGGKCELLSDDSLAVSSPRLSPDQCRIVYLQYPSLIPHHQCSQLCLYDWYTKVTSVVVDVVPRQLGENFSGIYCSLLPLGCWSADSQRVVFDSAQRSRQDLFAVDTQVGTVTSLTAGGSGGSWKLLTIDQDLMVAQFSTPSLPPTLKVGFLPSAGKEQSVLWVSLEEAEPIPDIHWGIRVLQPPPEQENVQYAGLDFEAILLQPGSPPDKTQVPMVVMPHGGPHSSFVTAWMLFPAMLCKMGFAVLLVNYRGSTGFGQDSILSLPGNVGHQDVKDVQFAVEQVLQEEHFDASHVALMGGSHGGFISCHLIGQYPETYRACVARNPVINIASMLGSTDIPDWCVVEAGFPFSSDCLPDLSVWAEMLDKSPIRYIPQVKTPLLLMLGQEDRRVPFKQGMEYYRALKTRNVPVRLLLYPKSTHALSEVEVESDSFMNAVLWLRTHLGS

Anti-Target ABHD10 = details: HeLa soluble proteome, FP-Rh fluorescence, stronger effect = higher value
Anti-Target CES = details: HeLa soluble proteome, FP-Rh fluorescence, measured here: Anti-Target CES, stronger effect = higher value
Anti-Target PREP = details: HeLa soluble proteome, FP-Rh fluorescence, measured here: Anti-Target PREP, stronger effect = higher value
[2] = molecular target: Fatty acid synthase (Homo sapiens) (UniProt P49327); details: HeLa soluble proteome, FP-Rh fluorescence, measured here: Anti-Target FAS, stronger effect = higher value
Sequence of Fatty acid synthase (Homo sapiens) (P49327 whole entry, looked up): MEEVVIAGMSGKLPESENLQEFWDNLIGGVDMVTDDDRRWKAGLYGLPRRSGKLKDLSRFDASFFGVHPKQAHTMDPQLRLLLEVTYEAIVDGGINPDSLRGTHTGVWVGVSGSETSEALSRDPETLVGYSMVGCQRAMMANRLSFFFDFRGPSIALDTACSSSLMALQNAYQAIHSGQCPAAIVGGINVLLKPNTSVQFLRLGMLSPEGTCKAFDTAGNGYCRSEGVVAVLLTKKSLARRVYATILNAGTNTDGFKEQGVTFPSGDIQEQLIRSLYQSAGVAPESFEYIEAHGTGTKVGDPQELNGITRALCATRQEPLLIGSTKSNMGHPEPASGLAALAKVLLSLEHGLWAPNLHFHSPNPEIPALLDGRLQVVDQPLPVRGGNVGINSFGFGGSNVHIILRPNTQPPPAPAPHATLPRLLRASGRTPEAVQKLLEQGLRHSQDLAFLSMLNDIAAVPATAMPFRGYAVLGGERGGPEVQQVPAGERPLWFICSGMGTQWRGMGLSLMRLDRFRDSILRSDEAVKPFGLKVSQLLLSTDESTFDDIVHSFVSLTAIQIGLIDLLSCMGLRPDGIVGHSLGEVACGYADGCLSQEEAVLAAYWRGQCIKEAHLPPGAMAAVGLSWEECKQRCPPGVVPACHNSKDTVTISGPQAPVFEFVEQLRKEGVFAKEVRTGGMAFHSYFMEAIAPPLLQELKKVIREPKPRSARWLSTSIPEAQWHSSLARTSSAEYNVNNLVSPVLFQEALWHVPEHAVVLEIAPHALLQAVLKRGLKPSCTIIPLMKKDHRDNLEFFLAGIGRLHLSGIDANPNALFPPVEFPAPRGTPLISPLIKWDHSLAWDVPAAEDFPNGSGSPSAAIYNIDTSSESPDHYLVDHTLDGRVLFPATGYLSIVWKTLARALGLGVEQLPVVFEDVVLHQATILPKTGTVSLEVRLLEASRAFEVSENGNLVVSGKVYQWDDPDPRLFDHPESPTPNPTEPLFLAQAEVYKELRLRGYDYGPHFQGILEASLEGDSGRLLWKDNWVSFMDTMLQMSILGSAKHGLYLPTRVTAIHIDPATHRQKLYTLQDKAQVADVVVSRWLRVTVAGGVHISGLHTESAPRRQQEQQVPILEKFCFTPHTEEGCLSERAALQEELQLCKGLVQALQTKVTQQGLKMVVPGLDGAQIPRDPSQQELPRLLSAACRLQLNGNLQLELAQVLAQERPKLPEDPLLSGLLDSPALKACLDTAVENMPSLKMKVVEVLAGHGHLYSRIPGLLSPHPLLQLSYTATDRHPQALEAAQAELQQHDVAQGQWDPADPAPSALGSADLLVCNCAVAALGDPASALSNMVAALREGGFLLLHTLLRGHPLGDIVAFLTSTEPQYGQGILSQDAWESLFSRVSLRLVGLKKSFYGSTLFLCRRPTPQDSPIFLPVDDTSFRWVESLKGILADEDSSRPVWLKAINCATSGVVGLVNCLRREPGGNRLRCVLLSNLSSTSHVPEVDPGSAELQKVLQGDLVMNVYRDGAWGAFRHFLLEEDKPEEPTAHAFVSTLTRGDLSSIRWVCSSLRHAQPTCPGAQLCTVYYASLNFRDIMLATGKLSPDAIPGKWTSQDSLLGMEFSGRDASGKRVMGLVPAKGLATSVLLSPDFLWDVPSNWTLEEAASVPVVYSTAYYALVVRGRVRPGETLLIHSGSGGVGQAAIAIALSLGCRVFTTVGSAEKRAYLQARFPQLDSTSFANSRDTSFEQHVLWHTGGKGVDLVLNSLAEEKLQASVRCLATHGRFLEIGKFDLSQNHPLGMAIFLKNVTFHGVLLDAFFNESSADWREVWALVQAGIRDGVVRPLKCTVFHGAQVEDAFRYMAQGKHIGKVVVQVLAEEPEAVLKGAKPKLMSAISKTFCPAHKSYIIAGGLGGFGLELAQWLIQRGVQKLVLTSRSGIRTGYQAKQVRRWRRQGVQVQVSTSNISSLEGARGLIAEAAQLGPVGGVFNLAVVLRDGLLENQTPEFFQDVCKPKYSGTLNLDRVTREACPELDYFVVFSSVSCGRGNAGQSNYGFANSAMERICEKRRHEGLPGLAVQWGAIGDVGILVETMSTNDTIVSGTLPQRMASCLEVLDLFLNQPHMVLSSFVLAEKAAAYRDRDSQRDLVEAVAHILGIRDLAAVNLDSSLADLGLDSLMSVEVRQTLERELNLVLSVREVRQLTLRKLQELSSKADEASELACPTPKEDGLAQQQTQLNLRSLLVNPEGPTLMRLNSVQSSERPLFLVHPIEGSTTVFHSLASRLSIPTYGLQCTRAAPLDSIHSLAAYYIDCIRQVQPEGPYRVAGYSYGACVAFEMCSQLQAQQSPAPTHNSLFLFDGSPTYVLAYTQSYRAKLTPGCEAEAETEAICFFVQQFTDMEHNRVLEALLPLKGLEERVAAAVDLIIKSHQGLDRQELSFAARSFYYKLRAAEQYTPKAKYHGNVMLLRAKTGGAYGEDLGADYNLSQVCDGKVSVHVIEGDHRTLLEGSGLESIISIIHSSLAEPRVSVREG

[3] = molecular target: Protein phosphatase methylesterase 1 (Homo sapiens) (UniProt Q9Y570); details: HeLa soluble proteome, FP-Rh fluorescence, stronger effect = higher value
Sequence of Protein phosphatase methylesterase 1 (Homo sapiens) (Q9Y570 whole entry, looked up): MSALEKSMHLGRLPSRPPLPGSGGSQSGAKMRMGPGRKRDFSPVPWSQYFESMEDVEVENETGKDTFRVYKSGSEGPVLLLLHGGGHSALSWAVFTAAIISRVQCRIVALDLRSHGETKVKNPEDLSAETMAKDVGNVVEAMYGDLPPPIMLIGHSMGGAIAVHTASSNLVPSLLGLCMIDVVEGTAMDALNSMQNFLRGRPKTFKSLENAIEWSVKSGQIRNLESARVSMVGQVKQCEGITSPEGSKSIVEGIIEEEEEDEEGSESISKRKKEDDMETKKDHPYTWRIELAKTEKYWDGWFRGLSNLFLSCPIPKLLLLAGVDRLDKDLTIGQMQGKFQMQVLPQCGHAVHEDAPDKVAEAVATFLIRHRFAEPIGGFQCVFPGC

[4] = measured here: Anti-Target ABHD10, at 1 µM
[5] = measured here: Anti-Target ABHD10, at 20 µM

SMILES	inhibition ([1]; at 1 µM)	inhibition ([1]; at 20 µM)	inhibition (Anti-Target ABHD10; [4])	inhibition (Anti-Target ABHD10; [5])	inhibition (Anti-Target CES; at 1 µM)	inhibition (Anti-Target CES; at 20 µM)	inhibition (Anti-Target PREP; at 1 µM)	inhibition (Anti-Target PREP; at 20 µM)	inhibition ([2]; at 1 µM)	inhibition ([2]; at 20 µM)	inhibition ([3]; PME-1, inhibition, at 1 µM)	inhibition ([3]; PME-1, inhibition, at 20 µM)	inhibition ([3]; PME-1, at 0.1 µM)
COC(=O)N1C(=O)[C@](c2ccc(OC)cc2)(C(C)C)N1C(=O)OC	0%	0%	0%	0%	0%	0%	0%	0%	0%	> 50%	100%	100%	–
CCOC(=O)N1C(=O)[C@](CC)(c2ccccc2)N1C(=O)OCC	0%	0%	0%	0%	> 50%	> 50%	0%	0%	0%	> 50%	0%	100%	–
COC(=O)N1C(=O)[C@@](c2ccc(OC)cc2)(C(C)C)N1C(=O)OC	0%	0%	0%	0%	0%	> 50%	0%	0%	0%	0%	0%	50%	–
COC(=O)N1C(=O)[C@@](c2ccccc2)(C2CCCC2)N1C(=O)OC	0%	0%	0%	0%	0%	0%	0%	0%	0%	0%	100%	100%	50%
CCOC(=O)N1C(=O)[C@@](CC)(c2ccccc2)N1C(=O)OCC	0%	0%	0%	50%	0%	> 50%	0%	> 50%	0%	0%	0%	0%	–
CCOC(=O)N1C(=O)[C@](c2ccc(Cl)cc2)(C(C)C)N1C(=O)OCC	0%	0%	0%	0%	0%	0%	0%	0%	0%	0%	50%	100%	–
COC(=O)N1C(=O)[C@](c2ccsc2)(C(C)C)N1C(=O)OC	0%	0%	0%	0%	0%	0%	0%	0%	0%	0%	50%	100%	–
CCOC(=O)N1C(=O)[C@@](c2ccc(Cl)cc2)(C(C)C)N1C(=O)OCC	0%	0%	0%	0%	0%	0%	0%	0%	0%	0%	0%	0%	–

More lines, now with the values ahead:

inhibition ([1]; at 1 µM)	inhibition ([1]; at 20 µM)	inhibition (Anti-Target ABHD10; [4])	inhibition (Anti-Target ABHD10; [5])	inhibition (Anti-Target CES; at 1 µM)	inhibition (Anti-Target CES; at 20 µM)	inhibition (Anti-Target PREP; at 1 µM)	inhibition (Anti-Target PREP; at 20 µM)	inhibition ([2]; at 1 µM)	inhibition ([2]; at 20 µM)	inhibition ([3]; PME-1, inhibition, at 1 µM)	inhibition ([3]; PME-1, inhibition, at 20 µM)	inhibition ([3]; PME-1, at 0.1 µM)	SMILES
0%	0%	0%	50%	0%	> 50%	0%	> 50%	0%	0%	0%	100%	–	CC[C@@]1(c2ccccc2)C(=O)N(C(=O)OC)N1C(=O)OC
0%	> 50%	0%	0%	> 50%	> 50%	0%	0%	0%	> 50%	100%	100%	–	COC(=O)N1C(=O)[C@@](CC(C)C)(c2ccccc2)N1C(=O)OC
0%	0%	0%	0%	0%	> 50%	0%	0%	0%	0%	0%	100%	–	CC[C@]1(c2ccccc2C)C(=O)N(C(=O)OC)N1C(=O)OC
0%	> 50%	0%	0%	> 50%	> 50%	0%	0%	> 50%	> 50%	100%	100%	100%	COC(=O)N1C(=O)[C@](CC(C)C)(c2ccccc2)N1C(=O)OC
0%	0%	0%	0%	0%	0%	0%	0%	0%	0%	100%	100%	–	COC(=O)N1C(=O)[C@](c2ccccc2)(C(C)C)N1C(=O)OC
0%	> 50%	0%	0%	> 50%	> 50%	0%	0%	0%	> 50%	75%	100%	–	COC(=O)N1C(=O)[C@](Cc2ccccc2)(c2ccccc2)N1C(=O)OC
0%	0%	0%	50%	> 50%	> 50%	0%	0%	0%	0%	0%	50%	–	COC(=O)N1C(=O)[C@@](Cc2ccccc2)(c2ccccc2)N1C(=O)OC
0%	0%	0%	0%	> 50%	> 50%	0%	0%	0%	0%	50%	100%	–	CC[C@@]1(c2ccccc2C)C(=O)N(C(=O)OC)N1C(=O)OC
0%	0%	0%	0%	> 50%	> 50%	0%	0%	0%	> 50%	50%	100%	–	CC[C@]1(c2cccc(C)c2)C(=O)N(C(=O)OC)N1C(=O)OC
0%	0%	0%	0%	> 50%	> 50%	0%	0%	0%	0%	75%	100%	–	CC[C@]1(c2ccccc2)C(=O)N(C(=O)OC)N1C(=O)OC
